From ChEMBL document CHEMBL1201862, “PubChem BioAssay data set” (2004)
Active and inactive are the calls of the source.

Tests used:
[1] = tested on: HEK293; assay: NOD2 signaling inhibitors in MDP-stimulated cells, cell-based, uHTS, luminescence (AID 2001); assay type: functional; conditions: Homo sapiens
[2] = target: T1, Hexokinase HKDC1 (Homo sapiens, UniProt Q2TB90); assay: inhibition of HKDC1 glucose phosphorylation – biochemical, W721R variant, dose response (AID 504729); assay type: functional
T1 sequence (Q2TB90 whole entry): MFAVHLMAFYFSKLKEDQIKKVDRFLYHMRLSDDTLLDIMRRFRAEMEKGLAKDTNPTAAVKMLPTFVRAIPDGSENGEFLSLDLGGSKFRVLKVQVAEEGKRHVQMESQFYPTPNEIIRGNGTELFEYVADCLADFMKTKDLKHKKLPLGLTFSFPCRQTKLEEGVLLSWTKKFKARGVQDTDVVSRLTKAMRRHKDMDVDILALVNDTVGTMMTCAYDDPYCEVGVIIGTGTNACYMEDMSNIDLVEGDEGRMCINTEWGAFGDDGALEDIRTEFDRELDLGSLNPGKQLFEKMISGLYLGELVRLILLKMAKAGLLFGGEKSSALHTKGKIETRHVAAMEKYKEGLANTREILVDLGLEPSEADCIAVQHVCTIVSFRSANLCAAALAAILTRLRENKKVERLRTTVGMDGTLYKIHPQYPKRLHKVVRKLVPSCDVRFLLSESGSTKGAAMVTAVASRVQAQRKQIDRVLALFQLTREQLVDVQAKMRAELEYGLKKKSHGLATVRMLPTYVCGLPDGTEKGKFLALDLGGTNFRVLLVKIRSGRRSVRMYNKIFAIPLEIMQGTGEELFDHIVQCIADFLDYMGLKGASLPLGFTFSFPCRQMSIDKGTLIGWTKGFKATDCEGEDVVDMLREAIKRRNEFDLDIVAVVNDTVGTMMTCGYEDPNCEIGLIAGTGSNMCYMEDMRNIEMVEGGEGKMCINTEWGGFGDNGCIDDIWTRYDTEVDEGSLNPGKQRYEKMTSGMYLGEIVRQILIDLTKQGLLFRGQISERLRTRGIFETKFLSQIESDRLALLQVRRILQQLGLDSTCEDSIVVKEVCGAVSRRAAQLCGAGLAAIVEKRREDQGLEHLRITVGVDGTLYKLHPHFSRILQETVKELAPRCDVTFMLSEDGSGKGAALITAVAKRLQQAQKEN

[3] = target: Tyrosyl-DNA phosphodiesterase 2 (Homo sapiens, UniProt O95551); assay: potency against TDP2 phosphodiesterase activity – biochemical, epi absorbance, IC50, dose response (AID 743297)
[4] = tested on: INS1; assay: INS-1E survival protection against cytokine death – cell-based, luminescence, retest, dose response (AID 449756); assay type: functional; conditions: Rattus norvegicus;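 also: cell death triggered by IL-1 beta plus TNF-alpha plus IFN-gamma mixture; protective hits raise ATP signal compared with cytokine alone wells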
[5] = target: Calcium/calmodulin-dependent protein kinase type II subunit gamma (Homo sapiens, UniProt Q13555); assay type: functional
[6] = target: Serine/threonine-protein kinase DCLK1 (Homo sapiens, UniProt O15075); assay type: functional;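 also: affinity for DCLK1 (listed as DCAMKL1) measured as one member of a kinome-wide kinase profiling panel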
[7] = target: Casein kinase II subunit alpha (Homo sapiens, UniProt P68400); assay type: functional
[8] = target: Receptor-type tyrosine-protein kinase FLT3 (Homo sapiens, UniProt P36888); assay type: functional;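 also: FLT3 was tested as one member of a kinome-wide kinase panel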
[9] = target: Death-associated protein kinase 3 (Homo sapiens, UniProt O43293); assay type: functional;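 also: measured as one member of a kinome-wide profiling panel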
[10] = target: Leukocyte tyrosine kinase receptor (Homo sapiens, UniProt P29376); assay: Navigating the Kinome. Panel member name: LTK; assay type: functional
[11] = target: Serine/threonine-protein kinase PLK1 (Homo sapiens, UniProt P53350); assay type: functional;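 also: PLK1 measured as one member of a kinome-wide profiling panel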
[12] = target: Macrophage colony-stimulating factor 1 receptor (Homo sapiens, UniProt P07333); assay type: functional;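 also: value comes from the Navigating the Kinome screening panel, CSF1R member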
[13] = target: Serine/threonine-protein kinase Nek4 (Homo sapiens, UniProt P51957); assay type: functional
[14] = target: Mitogen-activated protein kinase 14 (Homo sapiens, UniProt Q16539); assay type: functional;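 also: part of a kinome-wide panel, MAPK14 entry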
[15] = target: Tyrosine-protein kinase Lyn (Homo sapiens, UniProt P07948); assay type: functional;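 also: lyn as one member of a kinase panel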
[16] = target: Mitogen-activated protein kinase kinase kinase kinase 2 (Homo sapiens, UniProt Q12851); assay type: functional;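 also: measured as one member of a kinome-wide kinase panel, with MAP4K2 as the panel entry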
[17] = target: Tyrosine-protein kinase SYK (Homo sapiens, UniProt P43405); assay type: functional
[18] = target: Tyrosine-protein kinase receptor TYRO3 (Homo sapiens, UniProt Q06418); assay type: functional;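 also: TYRO3 value obtained as one member of a kinome-wide profiling panel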
[19] = target: Serine/threonine-protein kinase MRCK alpha (Homo sapiens, UniProt Q5VT25); assay type: functional
[20] = target: Protein kinase C iota type (Homo sapiens, UniProt P41743); assay type: functional;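 also: measured within a kinome-wide kinase panel, PRKCI as panel member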
[21] = target: Protein kinase C theta type (Homo sapiens, UniProt Q04759); assay: Navigating the Kinome. Panel member name: PRKCQ; assay type: functional
[22] = target: Serine/threonine-protein kinase pim-1 (Homo sapiens, UniProt P11309); assay type: functional
[23] = target: Cyclin-dependent kinase 9 (Homo sapiens, UniProt P50750); assay type: functional;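 also: value from the CDK9 entry of a kinome-spanning kinase panel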
[24] = target: Tyrosine-protein kinase FRK (Homo sapiens, UniProt P42685); assay type: functional;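 also: FRK tested as one member of a kinome panel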
[25] = fluconazole-exposed Candida albicans growth modulators – fluorescence, retest, confirmation (AID 2467); assay type: functional, cell-based
[26] = target: T2, Streptokinase A (Streptococcus pyogenes serotype M1, UniProt P10520); assay: viability-normalized secreted streptokinase activity reduction – plasminogen activation absorbance, OD405, dose response (AID 1914); assay type: functional, Streptococcus pyogenes M1 GAS;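 also: secreted streptokinase activity via plasminogen activation per viability signal from cell pellet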
T2 sequence (P10520 whole entry): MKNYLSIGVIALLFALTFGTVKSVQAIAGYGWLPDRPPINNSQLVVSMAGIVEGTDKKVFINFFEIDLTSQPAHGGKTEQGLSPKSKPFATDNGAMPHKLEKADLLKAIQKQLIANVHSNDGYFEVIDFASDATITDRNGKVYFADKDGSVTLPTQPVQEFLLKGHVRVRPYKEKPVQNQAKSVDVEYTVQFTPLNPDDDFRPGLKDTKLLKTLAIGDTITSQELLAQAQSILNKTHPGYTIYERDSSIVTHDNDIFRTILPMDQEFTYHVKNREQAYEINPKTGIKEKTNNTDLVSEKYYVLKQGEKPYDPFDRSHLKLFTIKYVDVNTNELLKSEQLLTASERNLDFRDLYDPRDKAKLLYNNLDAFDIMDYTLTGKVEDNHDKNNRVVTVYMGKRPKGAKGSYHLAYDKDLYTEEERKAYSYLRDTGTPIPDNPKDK

Sequence of Calcium/calmodulin-dependent protein kinase type II subunit gamma (Q13555 whole entry): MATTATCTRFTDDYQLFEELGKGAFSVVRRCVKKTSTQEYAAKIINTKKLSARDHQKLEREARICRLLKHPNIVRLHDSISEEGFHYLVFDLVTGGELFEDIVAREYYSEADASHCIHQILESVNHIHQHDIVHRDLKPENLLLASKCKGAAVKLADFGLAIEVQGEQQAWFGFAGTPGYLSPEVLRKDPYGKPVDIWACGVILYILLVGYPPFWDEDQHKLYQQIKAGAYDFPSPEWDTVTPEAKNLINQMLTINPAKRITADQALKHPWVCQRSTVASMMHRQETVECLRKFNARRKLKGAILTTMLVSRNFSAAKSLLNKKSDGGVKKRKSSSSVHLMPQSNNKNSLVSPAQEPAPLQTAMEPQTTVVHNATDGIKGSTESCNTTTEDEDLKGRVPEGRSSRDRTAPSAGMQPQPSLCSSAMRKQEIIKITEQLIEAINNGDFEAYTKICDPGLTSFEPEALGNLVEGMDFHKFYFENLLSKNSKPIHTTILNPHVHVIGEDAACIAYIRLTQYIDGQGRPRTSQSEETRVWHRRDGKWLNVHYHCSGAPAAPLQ
Sequence of Casein kinase II subunit alpha (P68400 whole entry): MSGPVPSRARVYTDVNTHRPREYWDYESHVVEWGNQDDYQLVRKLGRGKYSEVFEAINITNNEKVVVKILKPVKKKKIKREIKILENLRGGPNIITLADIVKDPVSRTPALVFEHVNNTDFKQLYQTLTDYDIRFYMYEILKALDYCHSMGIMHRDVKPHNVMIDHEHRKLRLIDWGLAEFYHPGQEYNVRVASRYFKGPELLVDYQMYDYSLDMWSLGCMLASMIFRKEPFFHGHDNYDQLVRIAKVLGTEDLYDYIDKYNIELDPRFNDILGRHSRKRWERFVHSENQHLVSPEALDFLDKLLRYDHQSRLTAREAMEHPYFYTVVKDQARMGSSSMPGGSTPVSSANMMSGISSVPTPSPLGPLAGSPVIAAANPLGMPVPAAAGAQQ
Sequence of Mitogen-activated protein kinase 14 (Q16539 whole entry): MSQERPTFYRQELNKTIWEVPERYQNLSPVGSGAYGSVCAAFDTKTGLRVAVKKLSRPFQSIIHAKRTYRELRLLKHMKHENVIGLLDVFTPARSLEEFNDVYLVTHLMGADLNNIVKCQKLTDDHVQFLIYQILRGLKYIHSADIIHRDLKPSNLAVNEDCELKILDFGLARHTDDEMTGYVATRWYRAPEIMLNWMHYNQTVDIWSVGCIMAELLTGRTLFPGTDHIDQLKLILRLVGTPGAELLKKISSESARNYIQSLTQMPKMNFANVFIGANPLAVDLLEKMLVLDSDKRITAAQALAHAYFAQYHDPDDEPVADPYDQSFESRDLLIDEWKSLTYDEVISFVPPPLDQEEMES
Sequence of Protein kinase C theta type (Q04759 whole entry): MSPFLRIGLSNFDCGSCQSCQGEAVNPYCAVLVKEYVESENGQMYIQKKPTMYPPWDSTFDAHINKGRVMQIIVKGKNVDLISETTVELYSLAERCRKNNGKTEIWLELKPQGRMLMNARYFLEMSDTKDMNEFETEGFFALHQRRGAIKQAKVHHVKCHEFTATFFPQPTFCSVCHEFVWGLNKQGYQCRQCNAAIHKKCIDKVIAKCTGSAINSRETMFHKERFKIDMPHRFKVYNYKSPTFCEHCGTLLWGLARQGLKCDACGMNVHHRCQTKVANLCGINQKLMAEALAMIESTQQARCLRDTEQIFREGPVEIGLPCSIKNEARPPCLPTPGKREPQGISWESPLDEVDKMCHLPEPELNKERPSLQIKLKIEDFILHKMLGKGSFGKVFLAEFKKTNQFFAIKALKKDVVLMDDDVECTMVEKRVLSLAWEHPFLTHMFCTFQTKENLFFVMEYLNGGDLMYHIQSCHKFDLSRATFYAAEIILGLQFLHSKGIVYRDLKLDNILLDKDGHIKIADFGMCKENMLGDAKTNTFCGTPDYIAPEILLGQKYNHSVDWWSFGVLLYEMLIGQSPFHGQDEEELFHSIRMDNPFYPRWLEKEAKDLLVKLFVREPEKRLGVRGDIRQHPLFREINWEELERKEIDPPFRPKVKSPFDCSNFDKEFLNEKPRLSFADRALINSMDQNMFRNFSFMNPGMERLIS
Sequence of Death-associated protein kinase 3 (O43293 whole entry): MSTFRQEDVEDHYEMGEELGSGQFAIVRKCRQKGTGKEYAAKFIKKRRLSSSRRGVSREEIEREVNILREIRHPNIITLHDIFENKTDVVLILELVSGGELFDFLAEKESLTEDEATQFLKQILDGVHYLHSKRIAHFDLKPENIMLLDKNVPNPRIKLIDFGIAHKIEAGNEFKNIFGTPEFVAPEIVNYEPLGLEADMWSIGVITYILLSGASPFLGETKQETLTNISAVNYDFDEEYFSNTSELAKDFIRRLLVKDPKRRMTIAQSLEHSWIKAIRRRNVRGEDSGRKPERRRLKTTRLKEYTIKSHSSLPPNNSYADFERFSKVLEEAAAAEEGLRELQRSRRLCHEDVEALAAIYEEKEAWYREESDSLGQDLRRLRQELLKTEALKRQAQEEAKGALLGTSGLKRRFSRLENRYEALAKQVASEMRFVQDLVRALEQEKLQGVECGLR
Sequence of Leukocyte tyrosine kinase receptor (P29376 whole entry): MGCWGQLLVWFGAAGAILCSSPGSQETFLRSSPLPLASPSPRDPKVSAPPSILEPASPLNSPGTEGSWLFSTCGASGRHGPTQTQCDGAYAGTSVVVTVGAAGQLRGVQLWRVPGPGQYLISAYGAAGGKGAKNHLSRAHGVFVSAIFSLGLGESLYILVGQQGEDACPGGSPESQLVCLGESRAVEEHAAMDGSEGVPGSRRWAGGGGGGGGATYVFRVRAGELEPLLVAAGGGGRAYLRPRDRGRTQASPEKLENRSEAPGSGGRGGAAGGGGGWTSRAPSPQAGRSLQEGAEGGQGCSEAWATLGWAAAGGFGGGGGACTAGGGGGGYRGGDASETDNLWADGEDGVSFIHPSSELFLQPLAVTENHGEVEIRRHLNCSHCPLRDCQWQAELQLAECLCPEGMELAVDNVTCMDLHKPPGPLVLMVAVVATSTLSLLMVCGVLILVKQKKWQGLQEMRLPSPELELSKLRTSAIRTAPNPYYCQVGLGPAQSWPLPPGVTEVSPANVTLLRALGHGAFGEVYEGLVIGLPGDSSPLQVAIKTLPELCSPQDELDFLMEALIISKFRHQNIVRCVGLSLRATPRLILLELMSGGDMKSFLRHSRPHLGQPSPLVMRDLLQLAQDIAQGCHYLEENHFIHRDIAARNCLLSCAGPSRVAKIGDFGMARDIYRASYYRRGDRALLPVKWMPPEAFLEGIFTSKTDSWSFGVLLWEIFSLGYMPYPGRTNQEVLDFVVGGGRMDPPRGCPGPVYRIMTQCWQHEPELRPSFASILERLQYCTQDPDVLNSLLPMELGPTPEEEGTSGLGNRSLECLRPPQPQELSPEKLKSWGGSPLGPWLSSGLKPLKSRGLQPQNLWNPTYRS
Sequence of Serine/threonine-protein kinase PLK1 (P53350 whole entry): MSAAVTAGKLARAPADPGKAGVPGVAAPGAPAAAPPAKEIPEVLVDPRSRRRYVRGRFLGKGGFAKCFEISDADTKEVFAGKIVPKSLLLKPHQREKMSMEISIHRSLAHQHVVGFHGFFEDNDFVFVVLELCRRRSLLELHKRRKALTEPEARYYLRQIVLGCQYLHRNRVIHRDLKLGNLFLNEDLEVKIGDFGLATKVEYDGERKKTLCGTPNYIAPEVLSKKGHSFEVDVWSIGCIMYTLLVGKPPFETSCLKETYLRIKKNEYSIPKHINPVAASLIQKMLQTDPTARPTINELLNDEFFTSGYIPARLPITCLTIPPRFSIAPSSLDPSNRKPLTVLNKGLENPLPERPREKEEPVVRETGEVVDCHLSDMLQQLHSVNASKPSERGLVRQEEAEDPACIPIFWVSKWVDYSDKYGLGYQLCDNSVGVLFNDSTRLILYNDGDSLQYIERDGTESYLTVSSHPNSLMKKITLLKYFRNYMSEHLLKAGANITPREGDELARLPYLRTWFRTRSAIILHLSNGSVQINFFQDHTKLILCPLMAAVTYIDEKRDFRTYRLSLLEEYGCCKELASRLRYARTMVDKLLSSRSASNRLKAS
Sequence of Macrophage colony-stimulating factor 1 receptor (P07333 whole entry): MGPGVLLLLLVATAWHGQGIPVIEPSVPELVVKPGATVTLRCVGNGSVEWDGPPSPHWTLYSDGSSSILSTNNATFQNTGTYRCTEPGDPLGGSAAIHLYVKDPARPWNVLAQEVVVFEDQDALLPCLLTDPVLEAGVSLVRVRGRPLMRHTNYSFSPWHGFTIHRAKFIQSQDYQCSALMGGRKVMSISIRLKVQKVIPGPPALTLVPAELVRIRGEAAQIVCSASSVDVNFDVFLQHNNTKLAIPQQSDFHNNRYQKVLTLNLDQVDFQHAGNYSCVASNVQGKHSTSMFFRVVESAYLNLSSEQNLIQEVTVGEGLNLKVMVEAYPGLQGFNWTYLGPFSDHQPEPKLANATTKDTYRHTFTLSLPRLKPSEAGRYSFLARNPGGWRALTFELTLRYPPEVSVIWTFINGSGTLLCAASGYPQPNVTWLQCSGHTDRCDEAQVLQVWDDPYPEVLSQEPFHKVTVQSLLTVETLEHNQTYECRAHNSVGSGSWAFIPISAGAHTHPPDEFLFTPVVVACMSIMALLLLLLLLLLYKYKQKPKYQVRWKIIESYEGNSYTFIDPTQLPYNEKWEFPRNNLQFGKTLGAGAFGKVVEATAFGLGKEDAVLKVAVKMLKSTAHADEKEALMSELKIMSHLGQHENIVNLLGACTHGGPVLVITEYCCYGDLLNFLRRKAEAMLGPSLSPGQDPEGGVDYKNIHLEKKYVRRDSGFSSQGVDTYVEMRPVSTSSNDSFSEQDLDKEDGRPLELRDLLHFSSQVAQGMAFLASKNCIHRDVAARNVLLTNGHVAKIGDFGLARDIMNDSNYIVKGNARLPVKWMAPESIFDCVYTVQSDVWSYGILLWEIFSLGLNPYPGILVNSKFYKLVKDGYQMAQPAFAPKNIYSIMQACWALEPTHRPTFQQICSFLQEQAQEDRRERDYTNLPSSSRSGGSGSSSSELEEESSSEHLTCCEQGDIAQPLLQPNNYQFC

O=C1C=C(N2CCOCC2)c2ccccc2C1=O
inactive: IC50 [1] 10.3 µM
active: IC50 [2] 1.02 µM | IC50 [3] 2.55 µM | AC50 [4] 4.72 µM

N#Cc1ccc2[nH]c(O)c(-c3ccc(CN4CCOCC4)cn3)c2c1 [AZD-1080]
inactive: Ki [6] > 10 µM | Ki [7] > 6.31 µM | Ki [8] > 3.16 µM | Ki [9] > 3.98 µM | Ki [10] > 2.51 µM | Ki [11] > 7.94 µM | Ki [12] > 2.51 µM | Ki [13] > 6.31 µM | Ki [14] > 3.98 µM | Ki [15] > 1.58 µM | Ki [16] > 3.98 µM | Ki [17] > 1.58 µM | Ki [18] > 2.51 µM | Ki [19] > 10 µM | Ki [20] > 5.01 µM | Ki [21] > 2.51 µM | Ki [22] > 5.01 µM | Ki [23] > 1.58 µM | Ki [24] > 2.51 µM
active: Ki [5] 5.01 µM

CCc1oc2ccccc2c1C(=O)c1cc(Br)c(O)c(Br)c1 [BENZBROMARONE]
inconclusive: EC50 [26] 17.2 µM
active: EC50 [25] 0.059 µM
